Data from patent US5643872A, “Cyclic anti-aggregatory peptides” (SmithKline Beecham Corporation, priority 1994, dated 1997).
Like-named read-outs stand apart in the source and are kept apart here. Square brackets hold non-standard residues; d marks the D form. Peptide text beside a SMILES is read from it.

Tests used:
[1] = amide bond, DMF
dog platelets = dog platelets (Canis lupus familiaris, UniProt A0A8I3N5G5+A0A8I3PMU9); conditions: read-out: IC50 for the aggregation of dog platelets stimulated by ADP; agonist ADP; peptides added 3 min prior to the agonist; light transmittance 5 min after agonist
Experimental: Inhibition of Platelet Aggregation
Blood was collected (citrated to prevent coagulation) from, naive, adult mongrel dogs. Platelet rich plasma, PRP, was prepared by centrifugation at 150×g for 10 min at room temperature. Washed platelets were prepared by centrifuging PRP at 800×g for 10 min. The cell pellet thus obtained was washed twice in Tyrode's buffer (pH 6.5) without Ca^++ and resuspended in Tyrode's buffer (pH 7.4) containing 1.8 mM Ca^++ at […]. Peptides were added 3 min prior to the agonist in all assays of platelet aggregation. Final agonist concentrations were 0.1 unit/ml thrombin and […] (Sigma). Aggregation was monitored in a Chrono-Log Lumi-Aggregometer. Light transmittance 5 min after addition of the agonist was used to calculate percent aggregation according to the formula % aggregation=[(90-CR)[…](90-10)]×100, where CR is the chart reading, 90 is the baseline, and 10 is the PRP blank reading. IC50 's were determined by plotting [% inhibition of aggregation] vs. [concentration of peptide]. Peptides were assayed at […] and diluted sequentially by a factor of 2 to establish a suitable dose response curve.

[2] = the molecule shown is the open-chain precursor, 20-membered ring, BOP/DIEA, resin, with chain assembly

Sequence of dog platelets (A0A8I3N5G5 1-1047): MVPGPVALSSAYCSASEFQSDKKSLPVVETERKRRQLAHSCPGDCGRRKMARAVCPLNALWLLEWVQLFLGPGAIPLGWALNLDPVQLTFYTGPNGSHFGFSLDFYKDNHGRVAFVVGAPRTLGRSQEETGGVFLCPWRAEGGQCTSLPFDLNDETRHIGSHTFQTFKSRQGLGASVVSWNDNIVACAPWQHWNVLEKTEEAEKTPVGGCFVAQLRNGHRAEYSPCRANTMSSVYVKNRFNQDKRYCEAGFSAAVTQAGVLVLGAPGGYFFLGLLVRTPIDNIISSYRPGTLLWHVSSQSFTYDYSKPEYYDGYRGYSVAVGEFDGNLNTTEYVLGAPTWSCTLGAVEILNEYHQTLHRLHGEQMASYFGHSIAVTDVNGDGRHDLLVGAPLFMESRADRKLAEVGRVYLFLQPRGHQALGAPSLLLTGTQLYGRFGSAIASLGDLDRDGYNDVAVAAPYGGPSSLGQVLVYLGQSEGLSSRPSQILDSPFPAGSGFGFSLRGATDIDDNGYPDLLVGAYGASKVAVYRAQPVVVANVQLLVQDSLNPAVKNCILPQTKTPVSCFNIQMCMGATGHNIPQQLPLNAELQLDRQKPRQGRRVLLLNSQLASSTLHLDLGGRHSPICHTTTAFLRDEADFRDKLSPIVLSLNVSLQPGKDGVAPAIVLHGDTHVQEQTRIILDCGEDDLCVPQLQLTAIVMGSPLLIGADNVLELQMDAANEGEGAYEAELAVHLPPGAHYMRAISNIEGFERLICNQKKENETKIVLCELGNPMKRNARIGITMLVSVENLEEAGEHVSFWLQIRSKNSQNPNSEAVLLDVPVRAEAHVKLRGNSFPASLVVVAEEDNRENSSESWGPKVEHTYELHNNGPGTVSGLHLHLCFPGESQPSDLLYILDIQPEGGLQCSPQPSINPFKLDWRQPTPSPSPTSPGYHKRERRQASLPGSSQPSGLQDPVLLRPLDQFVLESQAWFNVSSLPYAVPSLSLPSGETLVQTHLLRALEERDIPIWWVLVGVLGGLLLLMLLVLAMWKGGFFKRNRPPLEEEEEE
Sequence of dog platelets (A0A8I3PMU9 1-919): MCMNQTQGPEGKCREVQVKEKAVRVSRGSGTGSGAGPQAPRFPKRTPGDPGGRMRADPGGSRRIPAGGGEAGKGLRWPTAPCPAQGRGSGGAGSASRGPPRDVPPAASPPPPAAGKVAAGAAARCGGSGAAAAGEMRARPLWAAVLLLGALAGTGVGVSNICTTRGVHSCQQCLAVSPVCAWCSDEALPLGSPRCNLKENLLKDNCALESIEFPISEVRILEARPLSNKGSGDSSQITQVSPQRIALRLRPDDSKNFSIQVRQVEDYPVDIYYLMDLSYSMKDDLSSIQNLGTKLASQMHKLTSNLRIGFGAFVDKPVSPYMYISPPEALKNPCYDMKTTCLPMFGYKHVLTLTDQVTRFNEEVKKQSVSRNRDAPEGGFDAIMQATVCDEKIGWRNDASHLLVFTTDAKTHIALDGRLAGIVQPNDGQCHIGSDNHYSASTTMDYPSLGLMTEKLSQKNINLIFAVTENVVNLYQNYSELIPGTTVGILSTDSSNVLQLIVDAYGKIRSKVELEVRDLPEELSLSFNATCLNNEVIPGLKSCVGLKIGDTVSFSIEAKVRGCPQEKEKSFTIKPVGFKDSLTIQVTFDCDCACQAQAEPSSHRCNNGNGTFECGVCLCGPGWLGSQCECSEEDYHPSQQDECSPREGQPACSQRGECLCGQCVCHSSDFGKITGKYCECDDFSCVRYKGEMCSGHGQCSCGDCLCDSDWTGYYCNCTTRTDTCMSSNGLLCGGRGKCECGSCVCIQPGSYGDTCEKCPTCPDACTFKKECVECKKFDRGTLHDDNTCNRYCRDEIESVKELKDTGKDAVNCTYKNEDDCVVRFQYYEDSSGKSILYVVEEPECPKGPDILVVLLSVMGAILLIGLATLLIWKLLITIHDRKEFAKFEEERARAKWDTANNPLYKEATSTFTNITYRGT

Question: With COc1cc(C)c(S(=O)(=O)NC(=N)NCCC[C@@H]2NC(=O)[C@@H]3CCCN3C(=O)[C@@H](Cc3ccccc3)NC(=O)[C@H](CC(=O)OC(C)(C)C)NC(=O)CNC(=O)[C@H](CCCNC(=N)NS(=O)(=O)c3c(C)cc(OC)c(C)c3C)NC(=O)[C@@H]3CCCN3C(=O)[C@@H](Cc3ccccc3)NC(=O)[C@H](CC(=O)OC(C)(C)C)NC(=O)CNC2=O)c(C)c1C as the compound, how does the ring closure, crude yield ([1]; from H-Asp(OtBu)-dPhe-Pro-Arg(Mtr)-Gly-Asp(OtBu)-dPhe-Pro-Arg(Mtr)-Gly-OH, 30-membered ring, PPA/NMM, 0.4 mM) read?
Answer: 100%

Question: For COc1cc(C)c(S(=O)(=O)NC(=N)NCCC[C@@H]2NC(=O)[C@H](Cc3ccccc3)NC(=O)[C@H](CC(=O)OC(C)(C)C)NC(=O)CNC(=O)[C@H](CCCNC(=N)NS(=O)(=O)c3c(C)cc(OC)c(C)c3C)NC(=O)[C@H](Cc3ccccc3)NC(=O)[C@H](CC(=O)OC(C)(C)C)NC(=O)CNC2=O)c(C)c1C, which ring closure, crude yield ([1]; from H-Asp(OtBu)-Phe-Arg(Mtr)-Gly-Asp(OtBu)-Phe-Arg(Mtr)-Gly-OH, 24-membered ring, PPA/NMM, 0.4 mM) is on record?
Answer: 100%

Question: With COc1cc(C)c(S(=O)(=O)NC(=N)NCCC[C@@H]2NC(=O)[C@H](Cc3ccccc3)NC(=O)[C@H](CC(=O)OC(C)(C)C)NC(=O)CNC(=O)[C@H](CCCNC(=N)NS(=O)(=O)c3ccc(C)cc3)N(C)C(=O)[C@H](Cc3ccccc3)NC(=O)[C@H](CC(=O)OC(C)(C)C)NC(=O)CNC2=O)c(C)c1C as the compound, how does the ring closure, crude yield ([1]; from H-Asp(OtBu)-Phe-MeArg(Tos)-Gly-Asp(OtBu)-Phe-Arg(Mtr)-Gly-OH, 24-membered ring, PPA/NMM, 0.4 mM) read?
Answer: 95%

Question: For N=C(N)NCCC[C@@H]1NC(=O)[C@@H]2CCCN2C(=O)[C@@H](Cc2ccccc2)NC(=O)[C@H](CC(=O)O)NC(=O)CNC(=O)[C@H](CCCNC(=N)N)NC(=O)[C@@H]2CCCN2C(=O)[C@@H](Cc2ccccc2)NC(=O)[C@H](CC(=O)O)NC(=O)CNC1=O [Example 22, cyclo-(1,10)-Pro-Arg-Gly-Asp-D-Phe-Pro-Arg-Gly-Asp-D-Phe] (cyclo(RGD[dF]PRGD[dF]P)), which IC50 (dog platelets) is on record?
Answer: > 200 µM

Question: With N=C(N)NCCC[C@@H]1NC(=O)CNC(=O)[C@@H]2CCCN2C(=O)[C@H]2CCCN2C(=O)[C@H](CC(=O)O)NC(=O)CNC1=O [Example 24, cyclo-(1,6)-Pro-Gly-Arg-Gly-Asp-D-Pro] (cyclo(RGD[dP]PG)) as the compound, how does the IC50 (dog platelets) read?
Answer: > 200 µM

Question: Which IC50 (dog platelets) does the source give for N=C(N)NCCC[C@@H]1NC(=O)CNC(=O)[C@@H]2CCCN2C(=O)[C@H](CO)NC(=O)[C@H](CC(=O)O)NC(=O)CNC1=O [Example 25, cyclo-(1,6)-Gly-Arg-Gly-Asp-Ser-Pro] here?
Answer: > 200 µM

Question: For C[C@H]1NC(=O)[C@H](CO)NC(=O)[C@H](CC(=O)O)NC(=O)CNC(=O)[C@H](CCCNC(=N)N)NC1=O [Example 28, cyclo-(1,5)-D-Ala-Arg-Gly-Asp-Ser] (cyclo(RGDS[dA])), which IC50 (dog platelets) is on record?
Answer: > 200 µM

Question: For COc1cc(C)c(S(=O)(=O)NC(=N)NCCC[C@@H]2NC(=O)[C@@H]3CCCN3C(=O)[C@@H](Cc3ccccc3)NC(=O)CNC(=O)[C@H](CC(=O)OC(C)(C)C)NC(=O)CNC2=O)c(C)c1C [cyclo(1,6)-Asp(O-t-Bu)-Gly-D-Phe-Arg(Tos)-Gly], which ring closure, crude yield ([1]; from H-Asp(OtBu)-Gly-dPhe-Pro-Arg(Mtr)-Gly-OH, 18-membered ring, PPA/NMM, 0.5 mM) is on record?
Answer: 84%

Question: Which ring closure, crude yield ([1]; from H-Asp(OtBu)-dSer(Bzl)-Ala-Arg(Mtr)-Gly-OH, 15-membered ring, PPA/NMM, 0.4 mM) does the source give for COc1cc(C)c(S(=O)(=O)NC(=N)NCCC[C@@H]2NC(=O)[C@H](C)NC(=O)[C@@H](COCc3ccccc3)NC(=O)[C@H](CC(=O)OC(C)(C)C)NC(=O)CNC2=O)c(C)c1C [cyclo-(1,5)-Ala-Arg(Mtr)-Gly-Asp(O-t-Bu)-D-Ser(Bzl)] here?
Answer: 67%

Question: With Cc1ccc(S(=O)(=O)NC(=N)NCCC[C@@H]2NC(=O)[C@@H](C)NC(=O)[C@H](COCc3ccccc3)NC(=O)[C@H](CC(=O)OCc3ccccc3)NC(=O)CNC2=O)cc1 [cyclo-(1,5)-D-Ala-Arg(Tos)-Gly-Asp(Bzl)-Ser(Bzl)] as the compound, how does the ring closure, crude yield ([1]; from H-Asp(Bzl)-Ser(Bzl)-dAla-Arg(Tos)-Gly-OH, 15-membered ring, PPA/NMM, 0.4 mM) read?
Answer: 67%

Question: Which ring closure, crude yield ([1]; from H-Asp(OtBu)-Ser(Bzl)-Pro-Gly-Arg(Mtr)-Gly-OH, 18-membered ring, PPA/NMM, 0.4 mM) does the source give for COc1cc(C)c(S(=O)(=O)NC(=N)NCCC[C@@H]2NC(=O)CNC(=O)[C@@H]3CCCN3C(=O)[C@H](COCc3ccccc3)NC(=O)[C@H](CC(=O)OC(C)(C)C)NC(=O)CNC2=O)c(C)c1C [cyclo-(1,6)-Gly-Arg-Gly-Asp-Ser-Pro] here?
Answer: 88%

Question: For COc1cc(C)c(S(=O)(=O)NC(=N)NCCC[C@@H]2NC(=O)[C@@H]3CCCN3C(=O)CNC(=O)[C@H]3CCCN3C(=O)[C@H](CC(=O)OC(C)(C)C)NC(=O)CNC2=O)c(C)c1C [cyclo-(1,6)-Gly-Pro-Arg-Gly-Asp-D-Pro], which ring closure, crude yield ([1]; from H-Asp(OtBu)-dPro-Gly-Pro-Arg(Mtr)-Gly-OH, 18-membered ring, PPA/NMM, 0.4 mM) is on record?
Answer: 42%

Question: Which ring closure, crude yield ([1]; from H-Asp(OtBu)-Gly-dPro-Pro-Arg(Tos)-Gly-OH, 18-membered ring, PPA/NMM, 0.57 mM) does the source give for Cc1ccc(S(=O)(=O)NC(=N)NCCC[C@@H]2NC(=O)[C@@H]3CCCN3C(=O)[C@H]3CCCN3C(=O)CNC(=O)[C@H](CC(=O)OC(C)(C)C)NC(=O)CNC2=O)cc1 [cyclo-(1,6)-Pro-Arg(Tos)-Gly-Asp(O-t-Bu)-Gly-D-Pro] here?
Answer: 63%

Question: With COc1cc(C)c(S(=O)(=O)NC(=N)NCCC[C@@H]2NC(=O)CNC(=O)[C@@H]3CCCN3C(=O)[C@H]3CCCN3C(=O)[C@H](CC(=O)OC(C)(C)C)NC(=O)CNC2=O)c(C)c1C [cyclo-(1,6)-Pro-Gly-Arg(Mtr)-Gly-Asp(O-t-Bu)-D-Pro] as the compound, how does the ring closure, crude yield ([1]; from H-Asp(OtBu)-dPro-Pro-Gly-Arg(Mtr)-Gly-OH, 18-membered ring, PPA/NMM, 0.37 mM) read?
Answer: 31%

Question: For “H-Gly-Arg(Tos)-Gly-Asp(Bzl)-Ser(Bzl)-Glu-BHA-resin”, which ring closure, crude yield [1, 2] is on record?
Answer: 94%

Question: For “H-Gly-MeArg(Tos)-Gly-Asp(Bzl)-Ser(Bzl)-Glu-BHA-resin”, which ring closure, crude yield [1, 2] is on record?
Answer: 100%
